# According to patent US4241069A, “3-Methylene flavanones and 3-methylene chromanones” (Miles Laboratories, Inc., priority 1979, dated 1980):
# Assays:
# S. aureus NRRL B2747 = test: MIC, agar incorporation method; assay type: cell-based, Staphylococcus aureus; conditions: Staphylococcus aureus, NRRLB2747, 32° C., 24 hours, read-out: Minimal Inhibitory Concentration
# Procedure: (§1) The compounds of the present invention were tested for their ability to inhibit the growth of microorganisms by in vitro tests. Generally the in vitro tests involve growing representative microorganisms under conditions favorable to such growth and measuring the effectiveness of one or more compounds in inhibiting or destroying the growth of the microorganisms. The microorganisms used include representative bacteria, fungi and yeasts.
# (§2) A representative selection of the test microorganisms were cultured in a nutrient broth, such as, for example, Eugon, commercially available from Difco Laboratories, Detroit, Michigan. Bacteria and Candida species were cultured for 24 hours at 32°-37° C. and fungi were cultured for approximately one week at 32° C. Inocula were prepared by suspending the growth or spores from a slant culture in sufficient sterile normal (0.9 percent) saline or Eugon broth, to yield cell or spore concentrations of 1,000,000 cells per milliliter. Anaerobic bacteria were cultured for 48-72 hours at 32°-37° C. in a thioglycollate containing medium, for example, Fluid Thioglycollate medium or NIH thioglycollate broth, commercially available from Difco Laboratories.
# (§3) The compounds of the present invention were tested for activity against bacteria, yeasts and fungi by the agar incorporation method described below. MA 1347, 3-(dimethylaminomethyl)flavanone (disclosed in U.S. Pat. No. 3,753,985) was used as a comparative standard along with controls for each solvent system used.
# (§4) A series of agar plates containing two-fold dilutions of each compound to be tested, ranging in concentration from 100 to 3.1 mcg/ml of agar medium was prepared. Aliquots of each concentration (100, 50, 25, 12.5, 6.2, and 3.1) prepared in N,N-dimethylformamide or 50 percent aqueous DMF were added to liquid Eugon agar at 48° C. (one part test solution to 100 parts agar). In some cases, tests with further dilutions to 0.125 mcg/ml were conducted. The agar medium, containing the 3-methylene flavanone or chromanone compound to be tested, was then dispensed into petri dishes and allowed to solidify. The solidified plates were kept overnight at room temperatures to dry the surface of the agar.
# (§5) The agar plates were then inoculated with a drop of the standardized cell or spore suspension. Inoculated plates were incubated at 32° C. The inhibition end-point or minimum inhibitory concentration (MIC) shown in Table D represent the lowest concentration of test compound which inhibited the growth of the microorganism. Visual determination of growth inhibition was used. Bacteria and yeast end-points were determined after 24 hours incubation; molds, dermatophytes and anaerobes after 48-72 hours incubation. MIC values shown as ranges represent the extremes found in repeat assays. Virtually all such values were written plus or minus one dilution, the accepted variation of a two-fold dilution assay.
# [1] = system: Trichophyton mentagrophytes ATCC 4807; test: MIC, agar incorporation method; assay type: cell-based; conditions: ATCC4807, 32° C., 48-72 hours, read-out: Minimal Inhibitory Concentration
# Procedure: as §1, §2, §3, §4, §5
# A. fumigatus NRRL 165 = test: MIC, agar incorporation method; assay type: cell-based; conditions: Aspergillus fumigatus, NRRL165, 32° C., 48-72 hours, read-out: Minimal Inhibitory Concentration
# Procedure: as §1, §2, §3, §4, §5
# [2] = system: Pseudomonas aeruginosa ATCC 14502; test: MIC, agar incorporation method; assay type: cell-based; conditions: ATCC14502, 32° C., 24 hours, read-out: Minimal Inhibitory Concentration
# Procedure: as §1, §2, §3, §4, §5
# C. albicans NRRL Y-477 = test: MIC, agar incorporation method; assay type: cell-based; conditions: Candida albicans, NRRLY477, 32° C., 24 hours, read-out: Minimal Inhibitory Concentration
# Procedure: as §1, §2, §3, §4, §5
# [3] = system: Microsporum gypseum ATCC 14683; test: MIC, agar incorporation method; assay type: cell-based; conditions: Nannizzia gypsea, ATCC14683, 32° C., 48-72 hours; read-out: Minimal Inhibitory Concentration
# Procedure: as §1, §2, §3, §4, §5
# C. krusei VM 29B = test: MIC, agar incorporation method; assay type: cell-based; conditions: Pichia kudriavzevii, VM29B; 32° C., 24 hours; read-out: Minimal Inhibitory Concentration
# Procedure: as §1, §2, §3, §4, §5
# [4] = system: Aspergillus niger ATCC 16404; test: MIC, agar incorporation method; assay type: cell-based; conditions: ATCC16404, 32° C., 48-72 hours, read-out: Minimal Inhibitory Concentration
# Procedure: as §1, §2, §3, §4, §5
# T. rubrum ATCC 10218 = test: MIC, agar incorporation method; assay type: cell-based; conditions: Trichophyton rubrum, ATCC10218; 32° C., 48-72 hours; read-out: Minimal Inhibitory Concentration
# Procedure: as §1, §2, §3, §4, §5
# [5] = system: Staphylococcus aureus ATCC 6538; test: MIC, agar incorporation method; assay type: cell-based; conditions: Staphylococcus aureus, ATCC6538; S. aureus ATCC 6538; 32° C., 24 hours; read-out: Minimal Inhibitory Concentration
# Procedure: as §1, §2, §3, §4, §5
# [6] = system: Candida albicans ATCC 10231; test: MIC, agar incorporation method; assay type: cell-based; conditions: ATCC10231, C. albicans ATCC 10231, 32° C., 24 hours, read-out: Minimal Inhibitory Concentration
# Procedure: as §1, §2, §3, §4, §5
# T. mentagrophytes CDC = test: MIC, agar incorporation method; assay type: cell-based; conditions: Trichophyton mentagrophytes, 32° C., 48-72 hours, read-out: Minimal Inhibitory Concentration
# Procedure: as §1, §2, §3, §4, §5
# [7] = system: Escherichia coli ATCC 8739; test: MIC, agar incorporation method; assay type: cell-based; conditions: ATCC8739, 32° C., 24 hours, read-out: Minimal Inhibitory Concentration
# Procedure: as §1, §2, §3, §4, §5
# C. guillermondii VM 42 = test: MIC, agar incorporation method; assay type: cell-based; conditions: 32° C., 24 hours; read-out: Minimal Inhibitory Concentration
# Procedure: as §1, §2, §3, §4, §5
# C. tropicalis NRRL Y1410 = test: MIC, agar incorporation method; assay type: cell-based; conditions: Candida tropicalis, NRRLY1410; 32° C., 24 hours; read-out: Minimal Inhibitory Concentration
# Procedure: as §1, §2, §3, §4, §5
# T. mentagrophytes TM-2 = test: MIC, agar incorporation method; assay type: cell-based; conditions: Trichophyton mentagrophytes, TM2, 32° C., 48-72 hours, read-out: Minimal Inhibitory Concentration
# Procedure: as §1, §2, §3, §4, §5
# [8] = system: Streptococcus faecalis ATCC 10541; test: MIC, agar incorporation method; assay type: cell-based; conditions: Enterococcus faecalis, ATCC10541; 32° C., 24 hours; read-out: Minimal Inhibitory Concentration
# Procedure: as §1, §2, §3, §4, §5
# A. fumigatus NRRL 163 = test: MIC, agar incorporation method; assay type: cell-based; conditions: Aspergillus fumigatus, NRRL163, NRRL 163; 32° C., 48-72 hours; read-out: Minimal Inhibitory Concentration
# Procedure: as §1, §2, §3, §4, §5
# [9] = system: Propionobacterium acnes ATCC 6919; test: MIC, agar incorporation method, anaerobic; assay type: cell-based; conditions: 48 hours at 35° C., GasPak Anaerobic Jar, read-out: Minimal Inhibitory Concentration
# Procedure: as §1, §2, §3, §4, §5
# *Anaerobic: 48 hours incubation at 35° C. GasPak Anaerobic Jar
MIC (S. aureus NRRL B2747) [µg/mL],MIC [1] [µg/mL],MIC (A. fumigatus NRRL 165) [µg/mL],MIC [2] [µg/mL],MIC (C. albicans NRRL Y-477) [µg/mL],MIC [3] [µg/mL],MIC (C. krusei VM 29B) [µg/mL],MIC [4] [µg/mL],MIC (T. rubrum ATCC 10218) [µg/mL],MIC [5] [µg/mL],MIC [6] [µg/mL],MIC (T. mentagrophytes CDC) [µg/mL],MIC [7] [µg/mL],MIC (C. guillermondii VM 42) [µg/mL],MIC (C. tropicalis NRRL Y1410) [µg/mL],MIC (T. mentagrophytes TM-2) [µg/mL],MIC [8] [µg/mL],MIC (A. fumigatus NRRL 163) [µg/mL],MIC [9] [µg/mL],Compound
12.5,12.5,–,> 100,100,12.5,50,100,25,12.5,100,12.5,> 100,100,> 100,12.5,> 100,50,> 100,"C=C1C(=O)c2ccccc2OC1c1ccc(OC)cc1 (stereo not drawn) [Ex. 8, 4'-methoxy-3-methylene flavanone]"
3.1 to 6.2,25,–,> 100,–,12.5 to 25,50,100,12.5 to 25,≤ 3.1,–,25,> 100,> 100,> 100,25,25 to 50,–,≤ 100,"C=C1C(=O)c2ccccc2OC1c1ccc(C(C)(C)C)cc1 (stereo not drawn) [Ex. 14, 4'-t-butyl-3-methylene flavanone]"
6.2,12.5,–,> 100,50,6.2,25,25,12.5,≤ 3.1,50,12.5,> 100,> 100,> 100,12.5,50,12.5,≤ 100,"C=C1C(=O)c2ccc(OC)cc2OC1c1ccc(Cl)cc1 (stereo not drawn) [Ex. 18, 4'-chloro-7-methoxy-3-methylene flavanone]"
6.2,6.2,–,> 100,25,6.2,25,25,6.2,6.2,25,6.2,> 100,25,25,6.2,50,25,≤ 100,"C=C1C(=O)c2cc(C)ccc2OC1c1ccccc1 (stereo not drawn) [compound 19, 6-methyl-3-methylene flavanone]"

# Continued, compound first:
Compound,MIC (S. aureus NRRL B2747) [µg/mL],MIC [1] [µg/mL],MIC (A. fumigatus NRRL 165) [µg/mL],MIC [2] [µg/mL],MIC (C. albicans NRRL Y-477) [µg/mL],MIC [3] [µg/mL],MIC (C. krusei VM 29B) [µg/mL],MIC [4] [µg/mL],MIC (T. rubrum ATCC 10218) [µg/mL],MIC [5] [µg/mL],MIC [6] [µg/mL],MIC (T. mentagrophytes CDC) [µg/mL],MIC [7] [µg/mL],MIC (C. guillermondii VM 42) [µg/mL],MIC (C. tropicalis NRRL Y1410) [µg/mL],MIC (T. mentagrophytes TM-2) [µg/mL],MIC [8] [µg/mL],MIC (A. fumigatus NRRL 163) [µg/mL],MIC [9] [µg/mL]
"C=C1C(=O)c2ccccc2OC1c1cccc(Cl)c1 (stereo not drawn) [Ex. 2, 3'-chloro-3-methylene flavanone]",6.2,6.2,100,> 100,25,6.2,25,100,≤ 3.1,≤ 3.1,25,12.5,> 100,50,50,6.2,25,–,–
"C=C1C(=O)c2ccccc2OC1c1ccc(Br)cc1 (stereo not drawn) [Ex. 6, 4'-bromo-3-methylene flavanone]",6.2,6.2,50,> 100,25,6.2,25,50,6.2,≤ 3.1,25,12.5,> 100,25,25,6.2,25,–,–
"C=C1C(=O)c2ccccc2OC1c1cccc(OC)c1 (stereo not drawn) [Ex. 7, 3'-methoxy-3-methylene flavanone]",25,25,> 100,> 100,100,25,100,> 100,12.5,25,> 100,25,> 100,> 100,> 100,25,100,–,–
